Test results published in patent US11214594B2, “Antimicrobial peptide having synergistic antibacterial effect with antibiotics on multidrug resistant bacteria, and use thereof” (priority 2016, dated 2022).
Converted amounts (≈) assume the structure as drawn. Read-outs that look alike come from different tables or passages of the source. Where a SMILES comes first, the peptide text is derived from it.

Assays:
[1] = test system: MDRST 8007; assay: Minimal inhibitory concentration (MIC), single agent; format: cell-based, Salmonella typhimurium; conditions: agent alone
Procedure, shortened: (§1)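 MIC read-out = lowest peptide level with no bacterial proliferation. Strains diluted in MH medium to 2×10^6 CFU; peptide twofold serial dilutions in MH added 1:1 in microtiter wells.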

[2] = test system: P. aeruginosa; assay: microbe, parasite or virus in culture; format: cell-based, Pseudomonas aeruginosa
Procedure, shortened: as §1

[3] = test system: S. epidermidis; assay: microbe, parasite or virus in culture; format: cell-based, Staphylococcus epidermidis
Procedure, shortened: as §1

[4] = test system: E. coli; format: cell-based, Escherichia coli; conditions: E. coli
Procedure, shortened: (§2)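 Strains in MH medium at 2×10^6 CFU/ml were mixed with peptide diluted stepwise (2:1) from its MIC, then antibiotic dilutions in MH medium were added to give the antibiotic MIC. The reversed set-up, peptide titrated against fixed antibiotic, gave the peptide MIC.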

[5] = test system: MDREC 1229; format: cell-based, Escherichia coli
Procedure, shortened: as §2

[6] = test system: E. coli; assay: MIC of antibiotic during combined treatment with antimicrobial peptide; format: cell-based, Escherichia coli; conditions: for Antibiotic MIC, Erythromycin / Antibiotic MIC, Linezolid / Antibiotic MIC, Vancomycin: E. coli
Procedure, shortened: (§3)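 Read-out is the MIC of each combined solution, obtained from MH-medium dilutions of antibiotic added well by well, with a reversed-condition run as well.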

[7] = test system: A. baumannii; assay: microbe, parasite or virus in culture; format: cell-based, Acinetobacter baumannii
Procedure, shortened: as §1

[8] = test system: MDRAB 12035; assay: microbe, parasite or virus in culture; format: cell-based, Acinetobacter baumannii
Procedure, shortened: as §1

[9] = test system: MDRAB 12035; assay: MIC of antibiotic during combined treatment with antimicrobial peptide; format: cell-based, Acinetobacter baumannii
Procedure, shortened: as §2

[10] = test system: A. baumannii; assay: MIC of antimicrobial peptide during combined treatment with antibiotic; format: cell-based, Acinetobacter baumannii
Procedure, shortened: as §2

[11] = test system: MDRAB 12035; assay: as above; format: cell-based, Acinetobacter baumannii
Procedure, shortened: as §2

[12] = test system: A. baumannii; assay: MIC of antibiotic during combined treatment with antimicrobial peptide; format: cell-based, Acinetobacter baumannii; conditions: A. baumannii
Procedure, shortened: as §3

[13] = with Erythromycin […] (Conc./MIC 1)
[14] = peptide treatment concentration 1 μg/ml
[15] = peptide treatment concentration 2 μg/ml
[16] = peptide treatment concentration 4 μg/ml
[17] = peptide treatment concentration 6 μg/ml
[18] = peptide treatment concentration 8 μg/ml
[19] = peptide treatment concentration 16 μg/ml
[20] = peptide treatment concentration 32 μg/ml
[21] = peptide treatment concentration 64 μg/ml
[22] = erythromycin 4 μg/ml (Conc./MIC 1/8)
[23] = erythromycin 8 μg/ml (Conc./MIC 1/4)
[24] = erythromycin 16 μg/ml (Conc./MIC 1/2)
[25] = erythromycin 32 μg/ml (Conc./MIC 1)
[26] = vancomycin 512 μg/ml (Conc./MIC 1/2)
[27] = vancomycin 1024 μg/ml (Conc./MIC 1)
[28] = combined with peptide at 1 μg/ml
[29] = combined with peptide at 2 μg/ml
[30] = combined with peptide at 4 μg/ml
[31] = combined with peptide at 6 μg/ml
[32] = combined with peptide at 8 μg/ml
[33] = combined with peptide at 16 μg/ml
[34] = combined with peptide at 32 μg/ml
[35] = combined with peptide at 64 μg/ml

CC[C@H](C)[C@H](NC(=O)[C@H](CCCCN)NC(=O)[C@H](Cc1c[nH]c2ccccc12)NC(=O)[C@@H](N)CCCNC(=N)N)C(=O)N[C@@H](Cc1ccccc1)C(=O)N[C@@H](CCCCN)C(=O)N[C@@H](CCCCN)C(=O)N[C@H](C(=O)N1CCC[C@H]1C(=O)N[C@@H](CCCCN)C(=O)N[C@@H](Cc1ccccc1)C(=O)N[C@@H](CC(C)C)C(=O)N[C@@H](Cc1c[nH]cn1)C(=O)N[C@@H](CO)C(=O)N[C@@H](Cc1c[nH]c2ccccc12)C(=O)N[C@@H](CCCCN)C(=O)N[C@@H](CCCCN)C(=O)N[C@@H](Cc1c[nH]c2ccccc12)C(N)=O)[C@@H](C)CC [PapMA-4, RWK IFK KIP KFL HSW KKW-NH2] (H-RWKIFKKIPKFLHSWKKW-NH2; N-terminus assumed)
Minimal inhibitory concentration MIC [1]: 32 µg/mL (≈ 13 µM)
Minimal inhibitory concentration MIC [2]: 16 µg/mL (≈ 6.51 µM)
Minimal inhibitory concentration MIC [3]: >128 µg/mL
Peptide MIC [4, 13]: 0 µg/mL
Peptide MIC ([4]; with Linezolid […] (Conc./MIC 1)): 0 µg/mL
Peptide MIC ([4]; with Vancomycin 1024 μg/ml (Conc./MIC 1)): 0 µg/mL
Peptide MIC [5, 13]: 0 µg/mL
Peptide MIC ([5]; with Linezolid 512 μg/ml (Conc./MIC 1)): 0 µg/mL
Synergistic effect of antibacterial activity with existing antibiotics compared with PapMA-1 ([6]; E. coli and MDREC1229): level similar to that of the PapMA-1 peptide
Antibiotic MIC, Erythromycin ([6]; erythromycin combined with peptide at 1 μg/ml): 64 µg/mL
Antibiotic MIC, Erythromycin ([6]; erythromycin combined with peptide at 2 μg/ml): 32 µg/mL
Antibiotic MIC, Erythromycin ([6]; erythromycin combined with peptide at 4 μg/ml): 16 µg/mL
Antibiotic MIC, Erythromycin ([6]; erythromycin combined with peptide at 6 μg/ml): 8 µg/mL
Antibiotic MIC, Erythromycin ([6]; erythromycin combined with peptide at 8 μg/ml): 8 µg/mL
Antibiotic MIC, Erythromycin ([6]; erythromycin combined with peptide at 16 μg/ml): 0 µg/mL
Antibiotic MIC, Erythromycin ([6]; erythromycin combined with peptide at 32 μg/ml): 0 µg/mL
Antibiotic MIC, Erythromycin ([6]; erythromycin combined with peptide at 64 μg/ml): 0 µg/mL
Antibiotic MIC, Linezolid ([6]; linezolid combined with peptide at 1 μg/ml): 128 µg/mL
Antibiotic MIC, Linezolid ([6]; linezolid combined with peptide at 2 μg/ml): 64 µg/mL
Antibiotic MIC, Linezolid ([6]; linezolid combined with peptide at 4 μg/ml): 32 µg/mL
Antibiotic MIC, Linezolid ([6]; linezolid combined with peptide at 6 μg/ml): 32 µg/mL
Antibiotic MIC, Linezolid ([6]; linezolid combined with peptide at 8 μg/ml): 16 µg/mL
Antibiotic MIC, Linezolid ([6]; linezolid combined with peptide at 16 μg/ml): 0 µg/mL
Antibiotic MIC, Linezolid ([6]; linezolid combined with peptide at 32 μg/ml): 0 µg/mL
Antibiotic MIC, Linezolid ([6]; linezolid combined with peptide at 64 μg/ml): 0 µg/mL
Antibiotic MIC, Vancomycin ([6]; vancomycin combined with peptide at 1 μg/ml): >128 µg/mL
Antibiotic MIC, Vancomycin ([6]; vancomycin combined with peptide at 2 μg/ml): >128 µg/mL
Antibiotic MIC, Vancomycin ([6]; vancomycin combined with peptide at 4 μg/ml): >128 µg/mL
Antibiotic MIC, Vancomycin ([6]; vancomycin combined with peptide at 6 μg/ml): 128 µg/mL
Antibiotic MIC, Vancomycin ([6]; vancomycin combined with peptide at 8 μg/ml): 32 µg/mL
Antibiotic MIC, Vancomycin ([6]; vancomycin combined with peptide at 16 μg/ml): 0 µg/mL
Antibiotic MIC, Vancomycin ([6]; vancomycin combined with peptide at 32 μg/ml): 0 µg/mL
Antibiotic MIC, Vancomycin ([6]; vancomycin combined with peptide at 64 μg/ml): 0 µg/mL
Minimal inhibitory concentration MIC [7]: 16 µg/mL (≈ 6.51 µM)
Peptide MIC, peptide alone [7]: 16 µg/mL
Antibacterial activity relative to PapMA-1 ([7]; A. baumannii and antibiotic-resistant strains thereof): 4 times
Minimal inhibitory concentration MIC [8]: 16 µg/mL (≈ 6.51 µM)
Peptide MIC, peptide alone [8]: 16 µg/mL
Erythromycin MIC during combined treatment with peptide [9, 14]: 32 µg/mL
Linezolid MIC during combined treatment with peptide [9, 14]: >128 µg/mL
Vancomycin MIC during combined treatment with peptide [9, 14]: >128 µg/mL
Erythromycin MIC during combined treatment with peptide [9, 15]: 16 µg/mL
Linezolid MIC during combined treatment with peptide [9, 15]: 128 µg/mL
Vancomycin MIC during combined treatment with peptide [9, 15]: >128 µg/mL
Erythromycin MIC during combined treatment with peptide [9, 16]: 8 µg/mL
Linezolid MIC during combined treatment with peptide [9, 16]: 64 µg/mL
Vancomycin MIC during combined treatment with peptide [9, 16]: 128 µg/mL
Erythromycin MIC during combined treatment with peptide [9, 17]: 4 µg/mL
Linezolid MIC during combined treatment with peptide [9, 17]: 64 µg/mL
Vancomycin MIC during combined treatment with peptide [9, 17]: 64 µg/mL
Erythromycin MIC during combined treatment with peptide [9, 18]: 2 µg/mL
Linezolid MIC during combined treatment with peptide [9, 18]: 32 µg/mL
Vancomycin MIC during combined treatment with peptide [9, 18]: 64 µg/mL
Erythromycin MIC during combined treatment with peptide [9, 19]: 0 µg/mL
Linezolid MIC during combined treatment with peptide [9, 19]: 0 µg/mL
Vancomycin MIC during combined treatment with peptide [9, 19]: 0 µg/mL
Erythromycin MIC during combined treatment with peptide [9, 20]: 0 µg/mL
Linezolid MIC during combined treatment with peptide [9, 20]: 0 µg/mL
Vancomycin MIC during combined treatment with peptide [9, 20]: 0 µg/mL
Erythromycin MIC during combined treatment with peptide [9, 21]: 0 µg/mL
Linezolid MIC during combined treatment with peptide [9, 21]: 0 µg/mL
Vancomycin MIC during combined treatment with peptide [9, 21]: 0 µg/mL
Peptide MIC during treatment with antibiotic [10, 22]: 8 µg/mL
Peptide MIC during treatment with antibiotic [10, 23]: 4 µg/mL
Peptide MIC during treatment with antibiotic [10, 24]: 2 µg/mL
Peptide MIC during treatment with antibiotic [10, 25]: 0 µg/mL
Peptide MIC during treatment with antibiotic ([10]; linezolid 32 μg/ml (Conc./MIC 1/8)): 4 µg/mL
Peptide MIC during treatment with antibiotic ([10]; linezolid 64 μg/ml (Conc./MIC 1/4)): 4 µg/mL
Peptide MIC during treatment with antibiotic ([10]; linezolid […] (Conc./MIC 1)): 0 µg/mL
Peptide MIC during treatment with antibiotic ([10]; linezolid […] (Conc./MIC 1/2)): 1 µg/mL
Peptide MIC during treatment with antibiotic [10, 26]: 0.25 µg/mL
Peptide MIC during treatment with antibiotic [10, 27]: 0 µg/mL
Peptide MIC during treatment with antibiotic ([10]; vancomycin […] (Conc./MIC 1/4)): 0.25 µg/mL
Peptide MIC during treatment with antibiotic ([10]; vancomycin […] (Conc./MIC 1/8)): 2 µg/mL
Peptide MIC during treatment with erythromycin [11, 22]: 4 µg/mL
Peptide MIC during treatment with erythromycin [11, 23]: 4 µg/mL
Peptide MIC during treatment with erythromycin [11, 24]: 2 µg/mL
Peptide MIC during treatment with erythromycin [11, 25]: 0 µg/mL
Peptide MIC during treatment with linezolid ([11]; linezolid 64 μg/ml (Conc./MIC 1/8)): 4 µg/mL
Peptide MIC during treatment with linezolid ([11]; linezolid 512 μg/ml (Conc./MIC 1)): 0 µg/mL
Peptide MIC during treatment with linezolid ([11]; linezolid […] (Conc./MIC 1/2)): 1 µg/mL
Peptide MIC during treatment with linezolid ([11]; linezolid […] (Conc./MIC 1/4)): 2 µg/mL
Peptide MIC during treatment with vancomycin [11, 26]: 2 µg/mL
Peptide MIC during treatment with vancomycin [11, 27]: 0.25 µg/mL
Peptide MIC during treatment with vancomycin ([11]; vancomycin […] (Conc./MIC 1/4)): 2 µg/mL
Peptide MIC during treatment with vancomycin ([11]; vancomycin […] (Conc./MIC 1/8)): 4 µg/mL
Antibiotic MIC, Erythromycin [12, 28]: 32 µg/mL
Antibiotic MIC, Linezolid [12, 28]: >128 µg/mL
Antibiotic MIC, Vancomycin [12, 28]: >128 µg/mL
Antibiotic MIC, Erythromycin [12, 29]: 16 µg/mL
Antibiotic MIC, Linezolid [12, 29]: 64 µg/mL
Antibiotic MIC, Vancomycin [12, 29]: 128 µg/mL
Antibiotic MIC, Erythromycin [12, 30]: 8 µg/mL
Antibiotic MIC, Linezolid [12, 30]: 64 µg/mL
Antibiotic MIC, Vancomycin [12, 30]: 64 µg/mL
Antibiotic MIC, Erythromycin [12, 31]: 4 µg/mL
Antibiotic MIC, Linezolid [12, 31]: 32 µg/mL
Antibiotic MIC, Vancomycin [12, 31]: 64 µg/mL
Antibiotic MIC, Erythromycin [12, 32]: 4 µg/mL
Antibiotic MIC, Linezolid [12, 32]: 16 µg/mL
Antibiotic MIC, Vancomycin [12, 32]: 32 µg/mL
Antibiotic MIC, Erythromycin [12, 33]: 0 µg/mL
Antibiotic MIC, Linezolid [12, 33]: 0 µg/mL
Antibiotic MIC, Vancomycin [12, 33]: 0 µg/mL
Antibiotic MIC, Erythromycin [12, 34]: 0 µg/mL
Antibiotic MIC, Linezolid [12, 34]: 0 µg/mL
Antibiotic MIC, Vancomycin [12, 34]: 0 µg/mL
Antibiotic MIC, Erythromycin [12, 35]: 0 µg/mL
Antibiotic MIC, Linezolid [12, 35]: 0 µg/mL
Antibiotic MIC, Vancomycin [12, 35]: 0 µg/mL
